Source: US11655244B2, “Carbazole compounds and methods of use thereof” (GSNO Therapeutics, Inc, priority 2017, dated 2023)
“Also recorded” adds a separate entry of the source.

Legend:
[1] = tested on: non-alcoholic steatohepatitis (NASH) in male C57BL/6 mice; assay: Non-alcoholic steatohepatitis (NASH) model, Streptozotocin plus 60% kcal fat diet; type: in vivo; conditions: for liver to body weight ratio: disease control 0.066; for decrease of percentage collagen proportion area (CPA), Masson's trichrome staining, liver: vs disease control
Protocol: Timed pregnant mice (n=44) were selected for the study. The delivered pups were subcutaneously injected on post-natal day 2 with 200 μg of Streptozotocin and were allowed to remain with the mother until they reached the weanling age. After weanling, the male pups were selected and fed with 60% kcal fat diet (Research Diet-D12492) for next 6 weeks. All the animals were observed once daily for clinical signs and twice daily for morbidity and mortality.
Mice were dosed with vehicle, Compound 17 (at 3 mg/kg or 10 mg/kg) and 10 mg/kg of reference compound (either Obeticholic acid (OCA) or Elafibranor (ELA, GFT505)) once daily before the start of dark cycle (6:00 PM) from day 0 to 21. Animal body weight measurements were made daily for the complete duration of the experiment. Animals were dosed for 21 days (from week 9 to 12) with the test and reference compounds. Blood glucose was estimated before the treatment start, day 11 and on the termination day. Histopathology analysis including the H&E staining, Masson's trichrome staining and the Oil-red-O (ORO) staining was performed for the liver tissues.

[2] = tested on: Bleomycin-induced idiopathic pulmonary fibrosis model in male C57BL/6 mice; assay: Bleomycin-induced idiopathic pulmonary fibrosis model; type: in vivo; conditions: 10 mg/kg, i.p., once daily from day 14 to 28
Protocol: Compound 17 was made-up fresh every 4 days. A required amount of the test compound was weighed in a glass vial and the purity factor was calculated. A stock solution of 1 mg/ml (10 mg/kg) was made in distilled water (pH 8) and the subsequent 3 and 1 mg/kg doses (concentrations) were obtained by serial dilution of the 1 mg/ml stock solution. A clear and transparent solution was observed. Animals were dosed with Compound 17 at 1 mg/kg, 3 mg/kg and 10 mg/kg, i.p (intraperitoneal), once daily from day 14 to 28.
Pirfenidone was weighed in a glass vial and suspended in 0.5% methyl cellulose to obtain a 10 mg/ml formulation. A clear homogenous suspension was observed. Animals were dosed with Pirfenidone at 100 mg/kg, p.o., b.i.d., from day 14 to 28.

db/db mice = assay: Insulin and glucose tolerance tests, survival and 8-isoprostane in db/db diabetic mice; type: in vivo
Protocol: Compound 17 was studied in 6 week intra-gastric insulin and glucose tolerance tests in db/db mice dosed orally with Compound 17 at 10 mg/kg for 6 weeks qd. The male db/db mice were started on study at 6 weeks of age and were given a 60% high fat diet to increase the diabetic phenotype.
(§1) Vascular reactivity: Db/db mouse aorta segments were equilibrated in oxygenated PBS (95% O2 and 5% CO2) at 37° C. Following equilibration, 1 μM phenylephrine was added to each ring for submaximal contraction. After stabilization, Compound 17 was added to the rings and the effect on the muscle tone of the aorta segments was monitored with a tensometer as dose-responses from 10^-8 M to 10^-5 M for acetylcholine (“Ach”) and A23187 (5-(methylamino)-2-({(2R,3R,6S,8S,9R,11R)-3,9,11-trimethyl-8-[(1S)-1-methyl-2-oxo-2-(1H-pyrrol-2-yl)ethyl]-1,7-dioxaspiro[5.5]undec-2-yl}methyl)-1,3-benzoxazole-4-carboxylic). 8-Isoprostane was measured in plasma and heart homogenates by standard Elisa methods.

[3] = tested on: Db/db mouse aorta segments; assay: Vascular reactivity of aorta segments (tensometer); conditions: db/db mice; vs vehicle
Protocol: as §1

[4] = tested on: collagen induced arthritis model in DBAJ1 mice; assay: Collagen induced arthritis model; type: in vivo; conditions: 15 mg/kg daily from day 8
Protocol: Compound 17 was tested in a collagen induced arthritis model in DBAJ1 mice. Compound 17 was started on day 8 when the arthritis was established, as in a therapeutic model, and the DBAJ1 mice were then treated daily with Compound 17 (15 mg/kg). Mice were challenged with bovine collagen II+complete adjuvant at day 0. Clinical scores were determined as follows: 0=normal; 0.5=erythema and edema in only one digit; 1=erythema and mild edema of the footpad, or ankle or two to five digits; 2=erythema and moderate edema of two joints (footpad, ankle, two to five digits); 3=erythema and severe edema of the entire paw; 4=reduced swelling and deformation leading to an incapacitated limb.
Measurement of anti-collagen antibodies in the collagen induced arthritis model of rheumatoid arthritis in DBAJ1 Mice was by an anti-collagen ELISA kit by standard methods.

Structure (SMILES): NC(=O)CCn1c2ccc(-n3ccnc3)cc2c2ccc(CCC(=O)O)cc21 [Compound 17, 3-(imidazol-1(H)-yl)-7-(2-carboxylethyl)-9(H)-(2-aminocarbonylethyl) carbazole]
- ORO (Oil-Red-O) steatosis score relative to disease control ([1]; 3 mg/kg): −28%
- change of liver to body weight ratio compared with disease control ([1]; 3 mg/kg): −18.5%
- steatosis and lobular inflammation in the liver as indicated by the NAS ([1]; 3 mg/kg and 10 mg/kg): markedly reduced steatosis and lobular inflammation in the liver
- weight put on relative to naïve controls at day 21 ([1]; 3 mg/kg): +1.3%
- liver to body weight ratio ([1]; 3 mg/kg): 0.054
- decrease of percentage collagen proportion area (CPA), Masson's trichrome staining, liver ([1]; 3 mg/kg): 29%
- ORO (Oil-Red-O) steatosis score relative to disease control ([1]; 10 mg/kg): −52%
- change of liver to body weight ratio compared with disease control ([1]; 10 mg/kg): −16.2%
- reduction of plasma glucose relative to disease control ([1]; 10 mg/kg, i.p., p<0.01): 17.4%
- weight put on relative to naïve controls at day 21 ([1]; 10 mg/kg): −43%
- liver to body weight ratio ([1]; 10 mg/kg): 0.055
- decrease of percentage collagen proportion area (CPA), Masson's trichrome staining, liver ([1]; 10 mg/kg): 20%
- body weight increase compared with disease controls ([1]; 3 and 10 mg/kg, 21 days of treatment): both less than disease controls
- NAS (in words) ([1]; 3 and 10 mg/kg, p<0.05): significantly decreased the NAS
- change in body weight (g), Mean ([1]; Day 1, 3 mg/kg once daily): 0.00 g
- change in body weight (g), Mean ([1]; Day 1, 10 mg/kg once daily): 0.00 g
- change in body weight (g), Mean ([1]; Day 2, 3 mg/kg once daily): 0.54 g
- change in body weight (g), Mean ([1]; Day 2, 10 mg/kg once daily): 0.65 g
- change in body weight (g), Mean ([1]; Day 3, 3 mg/kg once daily): 0.85 g
- change in body weight (g), Mean ([1]; Day 3, 10 mg/kg once daily): 0.96 g
- change in body weight (g), Mean ([1]; Day 4, 3 mg/kg once daily): 0.48 g
- change in body weight (g), Mean ([1]; Day 4, 10 mg/kg once daily): 0.76 g
- change in body weight (g), Mean ([1]; Day 5, 3 mg/kg once daily): 0.35 g
- change in body weight (g), Mean ([1]; Day 5, 10 mg/kg once daily): 0.81 g
- change in body weight (g), Mean ([1]; Day 6, 3 mg/kg once daily): 0.68 g
- change in body weight (g), Mean ([1]; Day 6, 10 mg/kg once daily): 0.84 g
- change in body weight (g), Mean ([1]; Day 7, 3 mg/kg once daily): 0.54 g
- change in body weight (g), Mean ([1]; Day 7, 10 mg/kg once daily): 0.19 g
- change in body weight (g), Mean ([1]; Day 8, 3 mg/kg once daily): 0.21 g
- change in body weight (g), Mean ([1]; Day 8, 10 mg/kg once daily): 0.78 g
- change in body weight (g), Mean ([1]; Day 9, 3 mg/kg once daily): 0.53 g
- change in body weight (g), Mean ([1]; Day 9, 10 mg/kg once daily): 0.80 g
- change in body weight (g), Mean ([1]; Day 10, 3 mg/kg once daily): 0.56 g
- change in body weight (g), Mean ([1]; Day 10, 10 mg/kg once daily): 0.89 g
- change in body weight (g), Mean ([1]; Day 11, 3 mg/kg once daily): 0.40 g
- change in body weight (g), Mean ([1]; Day 11, 10 mg/kg once daily): 0.91 g
- change in body weight (g), Mean ([1]; Day 12, 3 mg/kg once daily): -0.49 g
- change in body weight (g), Mean ([1]; Day 12, 10 mg/kg once daily): -0.08 g
- change in body weight (g), Mean ([1]; Day 13, 3 mg/kg once daily): 0.81 g
- change in body weight (g), Mean ([1]; Day 13, 10 mg/kg once daily): 0.74 g
- change in body weight (g), Mean ([1]; Day 14, 3 mg/kg once daily): 1.10 g
- change in body weight (g), Mean ([1]; Day 14, 10 mg/kg once daily): 0.71 g
- change in body weight (g), Mean ([1]; Day 15, 3 mg/kg once daily): 0.84 g
- change in body weight (g), Mean ([1]; Day 15, 10 mg/kg once daily): 1.01 g
- change in body weight (g), Mean ([1]; Day 16, 3 mg/kg once daily): 1.32 g
- change in body weight (g), Mean ([1]; Day 16, 10 mg/kg once daily): 1.09 g
- change in body weight (g), Mean ([1]; Day 17, 3 mg/kg once daily): 1.38 g
- change in body weight (g), Mean ([1]; Day 17, 10 mg/kg once daily): 1.13 g
- change in body weight (g), Mean ([1]; Day 18, 3 mg/kg once daily): 1.11 g
- change in body weight (g), Mean ([1]; Day 18, 10 mg/kg once daily): 0.97 g
- change in body weight (g), Mean ([1]; Day 19, 3 mg/kg once daily): 1.22 g
- change in body weight (g), Mean ([1]; Day 19, 10 mg/kg once daily): 1.16 g
- change in body weight (g), Mean ([1]; Day 20, 3 mg/kg once daily): 1.56 g
- change in body weight (g), Mean ([1]; Day 20, 10 mg/kg once daily): 0.80 g
- change in body weight (g), Mean ([1]; Day 21, 3 mg/kg once daily): 1.57 g
- change in body weight (g), Mean ([1]; Day 21, 10 mg/kg once daily): 0.89 g
- pulmonary fibrosis (Ashcroft score and percentage collagen proportionate area) vs disease control [2]: notable mitigation of pulmonary fibrosis; also recorded: decreased lung fibrosis
- insulin and glucose tolerances (db/db mice; 10 mg/kg orally qd for 6 weeks, 60% high fat diet): statistically significantly reduced insulin and glucose tolerances
- amount of F2-IsoPs in cardiac tissue (myocardial 8-isoprostane) (db/db mice; db/db mice, vs vehicle): significantly reduces
- increase of survival in severely debilitated diabetic mice (db/db mice; db/db mice, vs vehicle): 66%
- vascular reactivity [3]: increased their vascular reactivity
- arthritis (clinical score) [4]: inhibits arthritis
- production of anti-collagen antibodies ([4]; ELISA): inhibits production of anti-collagen antibodies
